Among the data in US20050069522A1, “Combination pharmaceutical agents as inhibitors of HCV replication” (priority 2002, published 2005) are EC50 values, retold here.

This experiment concerns HCV replicon (HCV 1b-377-neo replicon cells). Description: HCV replicon cell line FRET assay. The format is cell-based. To be noted: Hepatitis C virus; HCV replicon cell line, FRET assay; read-out: Replicon Inhibition Range EC50. (In antiviral work, replicon cells carry a viral genome segment that copies itself.)
What is called EC50 is the concentration needed to bring the measured effect to its halfway point. Consider `O=C(Nc1ccc(C2S/C(=N\c3cccc(F)c3)N(Cc3ccco3)C2=O)cc1)[C@@H]1CCCN1C(=O)OCc1ccccc1` (stereo partly drawn) [Compound 2, 2S-{4-[2-(3-fluorophenylimino)-3-furan-2ylmethyl-4-oxo-thiazolidin-5yl]-phenylcarbamoyl}pyrrolidine-1-carboxylic acid benzyl ester], for which the concentration for a half-maximal effect (EC50) is above 5 µM. Next, `O=C(Nc1ccc(C2S/C(=N\c3cccc(F)c3)N(Cc3ccccn3)C2=O)cc1)[C@@H]1CCCN1C(=O)OCc1ccccc1` (stereo partly shown) [Compound 3]: below 0.1 µM.

Turning to `C[C@H](NC(=O)OCc1ccccc1)C(=O)Nc1ccc(C2S/C(=N\c3cccc(F)c3)N(Cc3ccccn3)C2=O)cc1` (stereo partly shown) [Compound 4], the EC50 was below 0.1 µM. As to `Cc1cnc(CN2C(=O)C(c3ccc(NC(=O)[C@@H]4CCCN4C(=O)OCc4ccccc4)cc3)S/C2=N\c2cccc(F)c2)cn1` (stereo partly shown) [Compound 5], the EC50 is below 0.1 µM. Next, `Cc1cnc(CN2C(=O)C(c3ccc(NC(=O)[C@H](C)NC(=O)OCc4ccccc4)cc3)S/C2=N\c2cccc(F)c2)cn1` (stereo partly shown) [Compound 6]: below 0.1 µM. Next, `O=C(Nc1ccc(C2S/C(=N\c3ccc(N4CCOCC4)cc3)N(Cc3ccco3)C2=O)cc1)[C@@H]1CCCN1C(=O)OCc1ccccc1` (stereo partly shown) [Compound 7]: below 0.1 µM; `O=C(Nc1ccc(C2S/C(=N\c3cccc(F)c3)N(Cc3ccco3)C2=O)cc1)[C@@H]1CCC(=O)N1C(=O)OCc1ccccc1` (stereo partly shown) [Compound 8]: 0.1 to 1 µM. For `C[C@H](NC(=O)OCc1ccccc1)C(=O)Nc1ccc(C2S/C(=N\c3ccc(N4CCOCC4)cc3)N(Cc3ccco3)C2=O)cc1` (stereo partly shown) [Compound 10], the concentration giving a half-maximal response (EC50) was below 0.1 µM. For the compound `O=C(Nc1ccc(C2S/C(=N\c3cccc4ccncc34)N(Cc3ccco3)C2=O)cc1)[C@@H]1CCCN1C(=O)OCc1ccccc1` (stereo partly shown) [Compound 11], the half-maximal effective concentration (EC50) was below 0.1 µM. Next, `C[C@H](NC(=O)OCc1ccccc1)C(=O)Nc1ccc(C2S/C(=N\c3cccc4ccncc34)N(Cc3ccco3)C2=O)cc1` (stereo partly shown) [Compound 12]: below 0.1 µM. Next, `COc1cccc(CN2C(=O)C(c3ccc(NC(=O)[C@@H]4CCCN4C(=O)OCc4ccccc4)cc3)S/C2=N\c2cccc(F)c2)c1` (stereo partly shown) [Compound 13]: 0.1 to 1 µM; `O=C(Nc1ccc(C2S/C(=N\c3cccc(F)c3)N(CC3CCCO3)C2=O)cc1)[C@@H]1CCCN1C(=O)OCc1ccccc1` (stereo partly shown) [Compound 14]: below 0.1 µM. The value for `O=C(Nc1ccc(C2S/C(=N\c3cccc(F)c3)N(Cc3cccnc3)C2=O)cc1)[C@@H]1CCCN1C(=O)OCc1ccccc1` (stereo partly shown) [Compound 15] was below 0.1 µM. Turning to `O=C(Nc1ccc(C2S/C(=N\c3cccc(F)c3)N(Cc3ccccc3)C2=O)cc1)[C@@H]1CCCN1C(=O)OCc1ccccc1` (stereo partly shown) [Compound 16], the EC50 fell in the range of 0.1 to 1 µM.

For the compound `O=C(Nc1ccc(C2S/C(=N\c3cccc(F)c3)N(CCOc3ccccc3)C2=O)cc1)[C@@H]1CCCN1C(=O)OCc1ccccc1` (stereo partly shown) [Compound 17], the EC50 lay in the range of 1 to 5 µM. Next, `O=C(Nc1ccc(C2S/C(=N\c3cccc(F)c3)N(Cc3ccc(OC(F)(F)F)cc3)C2=O)cc1)[C@@H]1CCCN1C(=O)OCc1ccccc1` (stereo partly shown) [Compound 19]: 1 to 5 µM; `O=C(Nc1ccc(C2S/C(=N\c3cccc(F)c3)N(CCc3cccs3)C2=O)cc1)[C@@H]1CCCN1C(=O)OCc1ccccc1` (stereo partly shown) [Compound 20]: 1 to 5 µM. `C[C@H](NC(=O)OCc1ccccc1)C(=O)Nc1ccc(C2S/C(=N\c3cccc(F)c3)N(CCOc3ccccc3)C2=O)cc1` (stereo partly shown) [Compound 21]: the 50% effective concentration (EC50) fell in the range of 1 to 5 µM. For the compound `C[C@H](NC(=O)OCc1ccccc1)C(=O)Nc1ccc(C2S/C(=N\c3cccc(F)c3)N(Cc3ccc(OC(F)(F)F)cc3)C2=O)cc1` (stereo partly shown) [Compound 23], the half-maximal effective concentration (EC50) was in the range of 1 to 5 µM.

With `C[C@H](NC(=O)OCc1ccccc1)C(=O)Nc1ccc(C2S/C(=N\c3cccc(F)c3)N(CCc3cccs3)C2=O)cc1` (stereo partly shown) [Compound 24], the concentration giving a half-maximal response (EC50) is 0.1 to 1 µM.

With `COc1cccc(CN2C(=O)C(c3ccc(NC(=O)[C@H](C)NC(=O)OCc4ccccc4)cc3)S/C2=N\c2cccc(F)c2)c1` (stereo partly shown) [Compound 25], the EC50 lay in the range of 0.1 to 1 µM.

As for `C[C@H](NC(=O)OCc1ccccc1)C(=O)Nc1ccc(C2S/C(=N\c3cccc(F)c3)N(CC3CCCO3)C2=O)cc1` (stereo partly shown) [Compound 26], the EC50 lay in the range of 0.1 to 1 µM.

`C[C@H](NC(=O)OCc1ccccc1)C(=O)Nc1ccc(C2S/C(=N\c3cccc(F)c3)N(Cc3cccnc3)C2=O)cc1` (stereo partly shown) [Compound 27]: the EC50 was below 0.1 µM. The value for `COc1ccc(CCN2C(=O)C(c3ccc(NC(=O)[C@H](C)NC(=O)OCc4ccccc4)cc3)S/C2=N\c2cccc(F)c2)cc1OC` (stereo partly shown) [Compound 28] was 1 to 5 µM; that for `C[C@H](NC(=O)OCc1ccccc1)C(=O)Nc1ccc(C2S/C(=N\c3cccc(F)c3)N(Cc3ccc(F)c(F)c3F)C2=O)cc1` (stereo partly shown) [Compound 29] was 1 to 5 µM. Next, `COc1ccc(CCN2C(=O)C(c3ccc(NC(=O)[C@@H]4CCCN4C(=O)OCc4ccccc4)cc3)S/C2=N\c2cccc(F)c2)cc1OC` (stereo partly shown) [Compound 30]: 1 to 5 µM; `C[C@H](NC(=O)OCc1ccccc1)C(=O)Nc1cccc(C2S/C(=N\c3cccc(F)c3)N(Cc3ccco3)C2=O)c1` (stereo partly shown) [Compound 32]: 1 to 5 µM; `O=C(Nc1cccc(C2S/C(=N\c3cccc(F)c3)N(Cc3ccco3)C2=O)c1)[C@@H]1CCCN1C(=O)OCc1ccccc1` (stereo partly shown) [Compound 33]: 1 to 5 µM.

For the compound `CCc1cccc(/N=C2\SC(c3ccc(NC(=O)[C@@H]4CCCN4C(=O)OCc4ccccc4)cc3)C(=O)N2Cc2ccco2)c1` (stereo partly shown) [Compound 36], the EC50 lay in the range of 1 to 5 µM. For `CCc1cccc(/N=C2\SC(c3ccc(NC(=O)[C@H](C)NC(=O)OCc4ccccc4)cc3)C(=O)N2Cc2ccco2)c1` (stereo partly shown) [Compound 37], the EC50 was 1 to 5 µM. Regarding `O=C(Nc1ccc(C2S/C(=N\c3ccc4c(c3)CCC4)N(Cc3ccco3)C2=O)cc1)[C@@H]1CCCN1C(=O)OCc1ccccc1` (stereo partly shown) [Compound 38], the EC50 lay in the range of 0.1 to 1 µM. Regarding `C[C@H](NC(=O)OCc1ccccc1)C(=O)Nc1ccc(C2S/C(=N\c3ccc4c(c3)CCC4)N(Cc3ccco3)C2=O)cc1` (stereo partly shown) [Compound 39], the concentration for a half-maximal effect (EC50) was in the range of 1 to 5 µM. Next, `Cc1ccc(/N=C2\SC(c3ccc(NC(=O)[C@H](C)NC(=O)OCc4ccccc4)cc3)C(=O)N2Cc2ccco2)c(Cl)c1` (stereo partly shown) [Compound 41]: 1 to 5 µM; `O=C(Nc1ccc(C2S/C(=N\c3cc(F)cc(F)c3)N(Cc3ccco3)C2=O)cc1)[C@@H]1CCCN1C(=O)OCc1ccccc1` (stereo partly shown) [Compound 42]: 0.1 to 1 µM. Next, `C[C@H](NC(=O)OCc1ccccc1)C(=O)Nc1ccc(C2S/C(=N\c3cc(F)cc(F)c3)N(Cc3ccco3)C2=O)cc1` (stereo partly shown) [Compound 43]: 0.1 to 1 µM. With `COc1ccc(/N=C2\SC(c3ccc(NC(=O)[C@@H]4CCCN4C(=O)OCc4ccccc4)cc3)C(=O)N2Cc2ccco2)cn1` (stereo partly shown) [Compound 44], the 50% effective concentration (EC50) lay within 0.1 to 1 µM. As to `CCC(C)c1ccc(/N=C2\SC(c3ccc(NC(=O)[C@@H]4CCCN4C(=O)OCc4ccccc4)cc3)C(=O)N2Cc2ccco2)cc1` (stereo partly shown) [Compound 45], the half-maximal effective concentration (EC50) lay in the range of 0.1 to 1 µM. The value for `CCC(C)c1ccc(/N=C2\SC(c3ccc(NC(=O)[C@H](C)NC(=O)OCc4ccccc4)cc3)C(=O)N2Cc2ccco2)cc1` (stereo partly shown) [Compound 46] was 1 to 5 µM.

As to `N#Cc1cccc(/N=C2\SC(c3ccc(NC(=O)[C@@H]4CCCN4C(=O)OCc4ccccc4)cc3)C(=O)N2Cc2ccco2)c1` (stereo partly shown) [Compound 47], the 50% effective concentration (EC50) was below 0.1 µM. For the compound `COc1ccc(C(F)(F)F)cc1/N=C1\SC(c2ccc(NC(=O)[C@@H]3CCCN3C(=O)OCc3ccccc3)cc2)C(=O)N1Cc1ccco1` (stereo partly shown) [Compound 49], the EC50 fell in the range of 0.1 to 1 µM.
